In US20230065740A1, “CYCLIN-DEPENDENT KINASE INHIBITORS” (SPV THERAPEUTICS INC., priority 2018, published 2023):
Read-outs that look alike come from different tables or passages of the source.

Columns and labels:
CDK4-CYCLIND1 = CDK4-CYCLIND1 (Homo sapiens, UniProt P11802); test: Microfluidic LabChip kinase inhibition assay, CDK4-CyclinD1; settings: CDK4 CyclinD1 IC50 (μM), 200 μM ATP, second value in parentheses on the next line
Experimental: Inhibition assays were performed using microfluidic LabChip 300 Drug Discovery System from Caliper Life Sciences. […] The assay has a total volume of 10 μL consisting of 5 μL of enzyme and buffer and 5 μL of substrate and buffer. The test compounds were diluted in 100% dimethylsulfoxide (DMSO) using 3-fold dilution steps. […] Compounds were tested in a single well for each dilution and the final concentration of DMSO was maintained at 1%.
The assay buffer contained 100 mM HEPES, pH 7.5, 0.01% Triton X-100, 0.1% bovine serum albumin (BSA), 5 mM MgCl2; 1 mM dithiothreitol (DTT), 10 μM sodium orthovanadate, and 10 μM β-glycerophosphate.
The assay was conducted by adding 5 μL of enzyme, adenosine triphosphate (ATP) and buffer to an assay plate. A 100 nL aliquot of the diluted compounds were added to the plate. The assay was initiated by the addition of 5 μL of phosphoenolpyruvate substrate (PEP) in buffer. […] The reaction was terminated by the addition of EDTA. The plates were analyzed using a Caliper LabChip 3000.

CDK9-CYCLINT1 = molecular target: T1, CDK9-CYCLINT1 (Homo sapiens, UniProt P50750); test: Microfluidic LabChip kinase inhibition assay, CDK9-CyclinT1; format: biochemical; settings: 10 μM ATP, read-out: CDK9 CyclinT1 IC50
T1 construct: purchased Carna
T1 sequence (P50750 whole entry): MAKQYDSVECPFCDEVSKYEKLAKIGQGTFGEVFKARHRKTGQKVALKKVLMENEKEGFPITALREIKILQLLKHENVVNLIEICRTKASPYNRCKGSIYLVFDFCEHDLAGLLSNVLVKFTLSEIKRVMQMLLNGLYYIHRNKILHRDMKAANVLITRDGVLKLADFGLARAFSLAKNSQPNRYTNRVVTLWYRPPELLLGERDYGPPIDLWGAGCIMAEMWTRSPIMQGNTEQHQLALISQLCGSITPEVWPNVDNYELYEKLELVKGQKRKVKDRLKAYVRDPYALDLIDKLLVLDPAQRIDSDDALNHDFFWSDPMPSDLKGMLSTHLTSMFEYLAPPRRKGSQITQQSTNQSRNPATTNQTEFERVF
T1 sequence (O60563 whole entry partner): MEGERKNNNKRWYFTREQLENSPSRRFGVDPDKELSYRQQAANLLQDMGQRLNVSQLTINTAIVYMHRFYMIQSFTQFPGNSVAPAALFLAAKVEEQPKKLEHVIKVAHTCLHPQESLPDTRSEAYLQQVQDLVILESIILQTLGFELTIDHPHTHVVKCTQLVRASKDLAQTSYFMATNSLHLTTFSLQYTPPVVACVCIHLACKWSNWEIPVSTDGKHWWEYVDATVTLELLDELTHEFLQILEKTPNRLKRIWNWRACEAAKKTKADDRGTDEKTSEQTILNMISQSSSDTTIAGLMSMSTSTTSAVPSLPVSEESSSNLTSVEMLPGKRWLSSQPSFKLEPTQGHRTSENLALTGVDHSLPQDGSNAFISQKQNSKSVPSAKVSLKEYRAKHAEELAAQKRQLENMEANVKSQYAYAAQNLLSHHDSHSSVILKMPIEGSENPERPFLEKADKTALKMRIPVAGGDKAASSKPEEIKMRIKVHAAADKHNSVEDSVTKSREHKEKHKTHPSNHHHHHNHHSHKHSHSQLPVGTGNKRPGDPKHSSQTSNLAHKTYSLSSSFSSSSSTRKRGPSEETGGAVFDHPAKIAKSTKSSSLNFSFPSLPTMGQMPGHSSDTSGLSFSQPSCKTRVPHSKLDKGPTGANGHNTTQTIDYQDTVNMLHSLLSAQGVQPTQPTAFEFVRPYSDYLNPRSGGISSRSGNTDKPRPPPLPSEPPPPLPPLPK

CDK7 CyclinH = CDK7 CyclinH (Homo sapiens, UniProt P50613); test: Additional inhibition assay, CDK7 CyclinH; format: biochemical
CDK7 CyclinH, sequence (P50613 whole entry): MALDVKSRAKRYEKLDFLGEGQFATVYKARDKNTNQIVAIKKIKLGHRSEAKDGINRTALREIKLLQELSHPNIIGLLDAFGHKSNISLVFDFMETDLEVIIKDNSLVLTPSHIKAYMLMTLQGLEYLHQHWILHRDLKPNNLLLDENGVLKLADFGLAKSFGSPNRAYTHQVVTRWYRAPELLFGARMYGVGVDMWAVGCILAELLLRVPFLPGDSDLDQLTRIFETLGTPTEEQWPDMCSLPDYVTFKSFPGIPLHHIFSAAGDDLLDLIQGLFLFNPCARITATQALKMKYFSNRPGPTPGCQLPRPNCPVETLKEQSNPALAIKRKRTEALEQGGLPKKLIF
CDK7 CyclinH, sequence (P51946 whole entry partner): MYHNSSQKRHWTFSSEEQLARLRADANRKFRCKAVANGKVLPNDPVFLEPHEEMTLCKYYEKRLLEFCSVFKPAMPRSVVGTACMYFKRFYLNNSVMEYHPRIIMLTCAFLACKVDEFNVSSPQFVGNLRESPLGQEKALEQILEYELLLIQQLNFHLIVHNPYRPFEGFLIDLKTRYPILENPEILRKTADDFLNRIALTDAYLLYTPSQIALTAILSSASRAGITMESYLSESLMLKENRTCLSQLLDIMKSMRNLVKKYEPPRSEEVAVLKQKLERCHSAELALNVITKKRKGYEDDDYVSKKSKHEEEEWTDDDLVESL
CDK7 CyclinH, sequence (P51948 whole entry partner): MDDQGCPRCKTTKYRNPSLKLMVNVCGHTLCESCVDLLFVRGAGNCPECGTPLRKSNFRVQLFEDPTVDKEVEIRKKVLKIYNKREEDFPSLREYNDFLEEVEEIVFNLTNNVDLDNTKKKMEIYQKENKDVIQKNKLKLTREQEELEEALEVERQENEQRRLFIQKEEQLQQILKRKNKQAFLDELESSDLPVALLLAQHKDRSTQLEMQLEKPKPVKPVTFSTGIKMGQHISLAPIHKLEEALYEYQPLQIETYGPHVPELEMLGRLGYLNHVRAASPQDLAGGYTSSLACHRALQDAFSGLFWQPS

CDK1/B = CDK1/B (Homo sapiens, UniProt P06493); test: Additional inhibition assay, CDK1/B; format: biochemical
CDK1/B, sequence (P06493 whole entry): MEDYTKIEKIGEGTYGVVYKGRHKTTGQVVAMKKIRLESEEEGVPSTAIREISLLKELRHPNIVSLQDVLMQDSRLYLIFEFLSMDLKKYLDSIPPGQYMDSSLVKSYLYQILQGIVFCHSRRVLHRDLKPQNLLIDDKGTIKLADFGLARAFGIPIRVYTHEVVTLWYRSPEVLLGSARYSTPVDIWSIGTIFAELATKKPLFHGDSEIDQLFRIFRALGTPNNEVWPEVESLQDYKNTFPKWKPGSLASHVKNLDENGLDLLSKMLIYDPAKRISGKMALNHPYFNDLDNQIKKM
CDK1/B, sequence (P14635 whole entry partner): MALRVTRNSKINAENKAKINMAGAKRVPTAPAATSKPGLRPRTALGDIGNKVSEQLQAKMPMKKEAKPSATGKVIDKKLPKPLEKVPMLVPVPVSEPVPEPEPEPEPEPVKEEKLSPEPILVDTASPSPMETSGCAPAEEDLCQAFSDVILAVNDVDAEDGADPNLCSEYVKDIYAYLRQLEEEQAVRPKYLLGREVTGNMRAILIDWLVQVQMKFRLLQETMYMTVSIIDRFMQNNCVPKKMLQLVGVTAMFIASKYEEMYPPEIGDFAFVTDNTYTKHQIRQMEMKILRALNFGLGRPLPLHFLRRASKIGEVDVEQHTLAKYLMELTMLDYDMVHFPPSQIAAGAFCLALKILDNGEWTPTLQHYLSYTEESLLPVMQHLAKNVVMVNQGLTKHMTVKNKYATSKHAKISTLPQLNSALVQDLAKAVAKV

CDK2-CYCLINA = molecular target: T2, CDK2-CYCLINA (Homo sapiens, UniProt P24941); test: Microfluidic LabChip kinase inhibition assay, CDK2-CyclinA; format: biochemical; settings: 50 μM ATP
T2 construct: purchased Millipore

CDK4-CYCLIND1, sequence (P11802 whole entry): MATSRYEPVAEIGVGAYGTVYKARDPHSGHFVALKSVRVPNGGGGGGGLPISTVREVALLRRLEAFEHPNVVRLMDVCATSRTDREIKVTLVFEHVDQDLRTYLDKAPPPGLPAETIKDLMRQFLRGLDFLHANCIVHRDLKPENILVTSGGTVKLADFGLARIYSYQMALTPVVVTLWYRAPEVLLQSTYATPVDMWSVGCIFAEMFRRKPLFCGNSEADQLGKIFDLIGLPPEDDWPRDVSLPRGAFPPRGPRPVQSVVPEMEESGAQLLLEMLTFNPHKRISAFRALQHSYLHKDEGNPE
CDK4-CYCLIND1, sequence (P24385 whole entry partner): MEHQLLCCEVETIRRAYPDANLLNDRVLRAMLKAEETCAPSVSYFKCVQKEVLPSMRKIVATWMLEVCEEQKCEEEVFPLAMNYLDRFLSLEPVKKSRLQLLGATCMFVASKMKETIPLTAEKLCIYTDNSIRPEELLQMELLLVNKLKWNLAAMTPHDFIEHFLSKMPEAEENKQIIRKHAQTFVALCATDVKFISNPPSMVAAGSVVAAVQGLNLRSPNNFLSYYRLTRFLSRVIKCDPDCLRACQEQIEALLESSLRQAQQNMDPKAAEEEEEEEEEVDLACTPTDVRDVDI

IC50 (CDK4-CYCLIND1; Table 3a) | IC50 (CDK4-CYCLIND1; Table 3b) | IC50 (CDK9-CYCLINT1; Table 3a) | IC50 (CDK7 CyclinH; Table 3a) | IC50 (CDK7 CyclinH; Table 3b) | IC50 (CDK1/B; Table 3a) | IC50 (CDK1/B; Table 3b) | IC50 (CDK2-CYCLINA; Table 3a) | IC50 (CDK2-CYCLINA; Table 3b) | IC50 (CDK9-CYCLINT1; Table 3b) | Compound
0.0453 µM | 0.0453 µM | 8.65 nM | > 10000 nM | > 10000 nM | 1050 nM | 1050 nM | 681 nM | 681 nM | – | CN(C)[C@H]1CCN(C(=O)c2ccc(Nc3ncc4c(n3)N(C3CCCC3)C3(CCNC3=O)C4)cc2)C1 (stereo partly drawn) [Compound C178, 7′-cyclopentyl-2′-((4-((S)-3-(dimethylamino)pyrrolidine-1-carbonyl)phenyl)amino)-5′,7′-dihydrospiro[pyrrolidine-3,6′-pyrrolo[2,3-d]pyrimidin]-2-one]
0.0679 µM | 0.0679 µM | 60.2 nM | > 10000 nM | > 10000 nM | 3550 nM | 3550 nM | 1940 nM | 1940 nM | – | CN(C)[C@@H]1CCN(C(=O)c2ccc(Nc3ncc4c(n3)N(C3CCCC3)C3(CCNC3=O)C4)cc2)C1 (stereo partly drawn) [Compound C181, 7′-cyclopentyl-2′-((4-((R)-3-(dimethylamino)pyrrolidine-1-carbonyl)phenyl)amino)-5′,7′-dihydrospiro[pyrrolidine-3,6′-pyrrolo[2,3-d]pyrimidin]-2-one]
0.341 µM | 0.341 µM | 148 nM | > 10000 nM | > 10000 nM | > 10000 nM | > 10000 nM | 9570 nM | 9570 nM | – | CC1CN(c2ccc(Nc3ncc4c(n3)N(C3CCCC3)C3(CCNC3=O)C4)cc2)CC(C)N1 (stereo not shown) [Compound C207, 7′-cyclopentyl-2′-((4-(3,5-dimethylpiperazin-1-yl)phenyl)amino)-5′,7′-dihydrospiro[pyrrolidine-3,6′-pyrrolo[2,3-d]pyrimidin]-2-one]
0.0668 µM | 0.0668 µM | 79.9 nM | > 10000 nM | > 10000 nM | 2020 nM | 2020 nM | 2280 nM | 2280 nM | – | CC1CN(c2ccc(Nc3ncc4c(n3)N(C3CCCC3)C3(CC(=O)NC3=O)C4)cc2)CC(C)N1 (stereo not shown) [Compound C208, 7′-cyclopentyl-2′-((4-(3,5-dimethylpiperazin-1-yl)phenyl)amino)-5′,7′-dihydrospiro[pyrrolidine-3,6′-pyrrolo[2,3-d]pyrimidine]-2,5-dione]
1.38 µM | 1.38 µM | 153 nM | > 10000 nM | > 10000 nM | > 10000 nM | > 10000 nM | 5010 nM | 5010 nM | – | CC(C)c1ccc(Nc2ncc3c(n2)N(C2CCCC2)C2(CCNC2=O)C3)cc1 (stereo not shown) [Compound C209, 7′-cyclopentyl-2′-((4-isopropylphenyl)amino)-5′,7′-dihydrospiro[pyrrolidine-3,6′-pyrrolo[2,3-d]pyrimidin]-2-one]
3.96 µM | 3.96 µM | > 10000 nM | > 10000 nM | > 10000 nM | > 10000 nM | > 10000 nM | > 10000 nM | > 10000 nM | > 10000 nM | CN(C)CCOc1ccc(Nc2ncc3c(n2)N(C2CCCC2)C2(CCNC2=O)C3)nc1 (stereo not shown) [Compound C210, 7′-cyclopentyl-2′-((5-(2-(dimethylamino)ethoxy)pyridin-2-yl)amino)-5′,7′-dihydrospiro[pyrrolidine-3,6′-pyrrolo[2,3-d]pyrimidin]-2-one]
